Experimental data taken from ChEMBL document CHEMBL4414547, “Discovery of a novel 2,5-dihydroxycinnamic acid-based 5-lipoxygenase inhibitor that induces apoptosis and may impair autophagic flux in RCC4 renal cancer cells” (Eur J Med Chem, 2019).
Active and inactive are the calls of the source. No cut-off for these calls is given here.

Key:
[1] = Cytotoxicity against VHL-positive human RCC10 cells assessed as reduction in cell viability incubated for 4 days by XTT assay; assay type: functional, cell-based; settings: 96 h
[2] = target: T1, Polyunsaturated fatty acid 5-lipoxygenase (Homo sapiens) (UniProt P09917); assay: Inhibition of 5-LO in human PMNL cells assessed as reduction in leukotriene formation at 1 uM preincubated for 5 mins followed by thapsigargin stimulation measured after 15 mins by RP-HPLC analysis relative to control; assay type: cell-based
T1 sequence (whole entry): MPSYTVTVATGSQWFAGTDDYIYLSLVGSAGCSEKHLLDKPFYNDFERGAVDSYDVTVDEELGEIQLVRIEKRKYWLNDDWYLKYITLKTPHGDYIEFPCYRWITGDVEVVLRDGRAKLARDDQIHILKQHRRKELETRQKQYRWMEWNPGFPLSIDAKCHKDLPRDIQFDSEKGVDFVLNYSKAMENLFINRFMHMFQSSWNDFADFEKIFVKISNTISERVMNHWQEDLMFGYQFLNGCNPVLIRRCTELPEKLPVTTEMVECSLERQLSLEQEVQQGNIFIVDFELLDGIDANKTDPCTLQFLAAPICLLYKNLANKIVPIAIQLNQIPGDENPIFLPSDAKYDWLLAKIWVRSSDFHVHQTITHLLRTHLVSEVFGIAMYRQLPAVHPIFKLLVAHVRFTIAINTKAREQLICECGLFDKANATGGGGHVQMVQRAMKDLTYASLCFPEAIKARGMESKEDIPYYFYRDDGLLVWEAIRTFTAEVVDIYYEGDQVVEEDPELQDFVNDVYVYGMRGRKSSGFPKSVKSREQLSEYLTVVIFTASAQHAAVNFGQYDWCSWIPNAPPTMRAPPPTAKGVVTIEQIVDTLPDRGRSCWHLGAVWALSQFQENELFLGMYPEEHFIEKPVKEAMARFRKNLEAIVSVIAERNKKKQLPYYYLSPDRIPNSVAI

RCC4/VHL [3] = assay: Cytotoxicity against VHL-positive human RCC4/VHL cells assessed as reduction in cell viability incubated for 4 days by XTT assay; assay type: functional, cell-based; settings: 96 h
[4] = Cytotoxicity against VHL-deficient human RCC10 cells assessed as reduction in cell viability incubated for 4 days by XTT assay; assay type: functional, cell-based; settings: 96 h
[5] = target: T1, Polyunsaturated fatty acid 5-lipoxygenase (Homo sapiens); assay: (§1) Inhibition of human 5-LO transfected in HEK293 cells coexpressing FLAP assessed as reduction in leukotriene formation at 1 uM using arachidonic acid as substrate preincubated for 5 mins followed by calcium ionophore A23187/arachidonic acid addition and measured after 15 mins by RP-HPLC analysis; assay type: cell-based
[6] = Antioxidant activity assessed as DPPH radical scavenging activity incubated for 30 mins under dark condition; assay type: functional
786-0 [7] = assay: Cytotoxicity against VHL-deficient human 786-0 cells assessed as reduction in cell viability incubated for 4 days by XTT assay; assay type: functional, cell-based; settings: 786-0, 96 h
786-0 [8] = assay: Cytotoxicity against VHL-positive human 786-0 cells assessed as reduction in cell viability incubated for 4 days by XTT assay; assay type: functional, cell-based; settings: 786-0, 96 h
RCC4 [9] = assay: Cytotoxicity against VHL-deficient human RCC4 cells assessed as reduction in cell viability incubated for 4 days by XTT assay; assay type: functional, cell-based; settings: RCC4, 96 h
[10] = Selectivity ratio of IC50 for VHL-positive human RCC4/VHL cells to IC50 for VHL-deficient human RCC4 cells; assay type: functional
RCC4/VHL [11] = assay: Induction of DNA damage in human RCC4/VHL cells assessed as induction of p53 expression at 1.25 uM incubated for 24 hrs by Western blot analysis; assay type: functional, cell-based
RCC4 [12] = assay: Induction of DNA damage in VHL-deficient human RCC4 cells assessed as induction of p53 expression at 1.25 uM incubated for 24 hrs by Western blot analysis; assay type: functional, cell-based
RCC4/VHL [13] = assay: Induction of autophagy in human RCC4/VHL cells assessed as increase in conversion of LC3B1 to LC3B2 expression at 1.25 uM incubated for 24 hrs by Western blot analysis; assay type: functional, cell-based
RCC4 [14] = assay: Induction of apoptosis in VHL-deficient human RCC4 cells assessed as cleavage of pro-caspase 3 at 1.25 uM incubated for 24 hrs by Western blot analysis; assay type: functional, cell-based
RCC4/VHL [15] = assay: Inhibition of autophagic flux in human RCC4/VHL cells assessed as increase in p62 expression at 1.25 uM incubated for 24 hrs by Western blot analysis; assay type: functional, cell-based
RCC4 [16] = assay: Induction of autophagy in VHL-deficient human RCC4 cells assessed as increase in conversion of LC3B1 to LC3B2 expression at 1.25 uM incubated for 24 hrs by Western blot analysis; assay type: functional, cell-based
RCC4 [17] = assay: Induction of cellular phenotype changes in VHL-deficient human RCC4 cells at 1.25 uM incubated for 24 hrs by inverted microscopic analysis; assay type: functional, cell-based
RCC4/VHL [18] = assay: Induction of apoptosis in human RCC4/VHL cells assessed as cleavage of pro-caspase 3 at 1.25 uM incubated for 24 hrs by Western blot analysis; assay type: functional, cell-based
RCC4/VHL [19] = assay: Induction of cellular phenotype changes in human RCC4/VHL cells at 1.25 uM incubated for 24 hrs by inverted microscopic analysis; assay type: functional, cell-based
RCC4 [20] = assay: Inhibition of autophagic flux in VHL-deficient human RCC4 cells assessed as increase in p62 expression at 1.25 uM incubated for 24 hrs by Western blot analysis; assay type: functional, cell-based
[21] = target: T1, Polyunsaturated fatty acid 5-lipoxygenase (Homo sapiens); assay: Potency index, ratio of CAPE IC50 to compound IC50 for inhibition of 5-LO in human PMNL cells assessed as reduction in leukotriene formation preincubated for 5 mins followed by thapsigargin stimulation measured after 15 mins by RP-HPLC analysis; assay type: cell-based
[22] = target: T1, Polyunsaturated fatty acid 5-lipoxygenase (Homo sapiens); assay: Potency index, ratio of Zileuton IC50 to compound IC50 for inhibition of 5-LO in human PMNL cells assessed as reduction in leukotriene formation preincubated for 5 mins followed by thapsigargin stimulation measured after 15 mins by RP-HPLC analysis; assay type: cell-based
[23] = target: T2, Polyunsaturated fatty acid 5-lipoxygenase (Homo sapiens, UniProt P09917); assay: Inhibition of 5-LO in human PMNL cells assessed as reduction in leukotriene formation preincubated for 5 mins followed by thapsigargin stimulation measured after 15 mins by RP-HPLC analysis; assay type: cell-based
T2 sequence (P09917 whole entry): T1 sequence (whole entry)

DNA [24] = assay: Induction of DNA damage in VHL-deficient human RCC4 cells assessed as increase in p53 expression at 0.5 uM incubated for 24 hrs by Western blot analysis; assay type: cell-based
DNA [25] = assay: Induction of DNA damage in human RCC4/VHL cells assessed as increase in p53 expression at 0.5 uM incubated for 24 hrs by Western blot analysis; assay type: cell-based
RCC4 [26] = assay: Induction of apoptosis in VHL-deficient human RCC4 cells assessed as cleavage of pro-caspase 3 at 0.5 uM incubated for 24 hrs by Western blot analysis; assay type: functional, cell-based
RCC4/VHL [27] = assay: Induction of apoptosis in human RCC4/VHL cells assessed as cleavage of pro-caspase 3 at 0.5 uM incubated for 24 hrs by Western blot analysis; assay type: functional, cell-based
[28] = target: T1, Polyunsaturated fatty acid 5-lipoxygenase (Homo sapiens); assay: as §1, with “as” for “as reduction in”, “analysis relative to control” for “analysis”; assay type: cell-based; parameters: scale not given: the % may be the effect or the level left

## O=C(/C=C/c1ccc(O)c(O)c1)OCCc1ccccc1 [CAFFEIC ACID PHENETHYL ESTER]
[1]
  IC50: 12.6 µM
[2]
  inhibition: Active
RCC4/VHL [3]
  IC50: 29.1 µM
[4]
  IC50: 19.8 µM
[5]
  inhibition: Active
[6]
  IC50: 18.2 µM
786-0 [7]
  IC50: 26.8 µM
786-0 [8]
  IC50: 43.8 µM
RCC4 [9]
  IC50: 14 µM
[10]
  Ratio IC50: 2.1

## Cc1cccc(Nc2nc(-c3ccncc3)cs2)c1
[1]
  IC50: 12.6 µM
RCC4/VHL [11]
  Activity: inactive
RCC4 [12]
  Activity: inactive
RCC4/VHL [13]
  Activity: Active
RCC4 [14]
  Activity: inactive
RCC4/VHL [15]
  inhibition: Active
RCC4 [16]
  Activity: Active
RCC4 [17]
  Activity: inactive
RCC4/VHL [18]
  Activity: inactive
RCC4/VHL [19]
  Activity: inactive
RCC4/VHL [3]
  IC50: 5.3 µM
[4]
  IC50: 8.6 µM
RCC4 [20]
  inhibition: Active
786-0 [7]
  IC50: 5.7 µM
786-0 [8]
  IC50: 6.9 µM
RCC4 [9]
  IC50: 1.2 µM
[10]
  Ratio IC50: 4.4

## O=C(/C=C/c1cc(O)ccc1O)CCc1ccccc1
[1]
  IC50: 5.1 µM
[21]
  Ratio IC50: 1.8
[2]
  inhibition: > 50%
RCC4/VHL [3]
  IC50: 12.3 µM
[4]
  IC50: 9.2 µM
[5]
  inhibition: Active
[6]
  IC50: 15 µM
[22]
  Ratio IC50: 4
786-0 [7]
  IC50: 20.5 µM
[23]
  IC50: 0.53 µM
786-0 [8]
  IC50: 19 µM
RCC4 [9]
  IC50: 9.9 µM

## CC(c1cc2ccccc2s1)N(O)C(N)=O (stereo not drawn) [ZILEUTON]
[2]
  inhibition: Active
[5]
  inhibition: Active
[6]
  IC50: > 100 µM

## O=C1O[C@H]([C@@H](O)CO)C(O)=C1O [ASCORBIC ACID]
[6]
  IC50: 13.9 µM

## COc1cccc2c1C(=O)c1c(O)c3c(c(O)c1C2=O)C[C@@](O)(C(=O)CO)C[C@@H]3O[C@H]1C[C@H](N)[C@H](O)[C@H](C)O1
DNA [24]
  Activity: Active
DNA [25]
  Activity: Active
RCC4 [26]
  Activity: inactive
RCC4/VHL [27]
  Activity: inactive

## O=C(/C=C/c1ccc(O)cc1O)OCCc1ccccc1
[28]
  Activity: 100%
